For orientation: EC50 means the concentration at which the effect is half-maximal. A word on the IC50: it is the point on the concentration scale where inhibition reaches its midpoint.

Here are results for 21 compounds from US10316017B2, “COT modulators and methods of use thereof” (Gilead Sciences, Inc., priority 2015, dated 2019).

For assay [1], the system named is TNFα production in LPS-stimulated human monocytes. Nature of the assay: Cot Monocyte TNFα Cell Based Assay. Particulars: Homo sapiens, Monocyte, TNFα in LPS-stimulated human monocytes; read-out: EC50 TNF. The essentials:
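Cells at 5,000/well were pretreated with compound for 1 h at 37 °C (0.5% DMSO final), then stimulated with 50 pg/ml LPS for 4 h at 37 °C. Supernatant TNFα was measured by two-antibody TR-FRET after overnight room-temperature incubation; values are percent of control between unstimulated and stimulated wells.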

Assay [2] concerns the target T1, human Cot catalytic domain (30-397 amino acids) (Homo sapiens, UniProt P41279).
T1 construct: Purified recombinant human Cot catalytic domain (30-397 amino acids) was purchased from Cama Biosciences; purchased Cama Biosciences (so in the source)
Nature of the assay: High Throughput Cot Biochemical Assay (KinEASE TR-FRET). Particulars: Cot biochemical HTRF (KinEASE TR-FRET) assay; read-out: IC50 HTRF. The essentials: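 Reaction of 5 nM recombinant human Cot catalytic domain (aa 30-397) with 1 μM STK3 peptide (XL665-labeled) and 400 μM ATP in 10 mM MOPS pH 7.0, 10 mM MgOAc, 1 mM DTT, 0.5 mg/mL BSA, 0.1% DMSO. Phosphopeptide detected by TR-FRET with europium anti-phospho antibody.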
On the technique in general: Time-resolved FRET reads energy transfer from a long-lived donor to a nearby acceptor.

T1 sequence (P41279 30-397): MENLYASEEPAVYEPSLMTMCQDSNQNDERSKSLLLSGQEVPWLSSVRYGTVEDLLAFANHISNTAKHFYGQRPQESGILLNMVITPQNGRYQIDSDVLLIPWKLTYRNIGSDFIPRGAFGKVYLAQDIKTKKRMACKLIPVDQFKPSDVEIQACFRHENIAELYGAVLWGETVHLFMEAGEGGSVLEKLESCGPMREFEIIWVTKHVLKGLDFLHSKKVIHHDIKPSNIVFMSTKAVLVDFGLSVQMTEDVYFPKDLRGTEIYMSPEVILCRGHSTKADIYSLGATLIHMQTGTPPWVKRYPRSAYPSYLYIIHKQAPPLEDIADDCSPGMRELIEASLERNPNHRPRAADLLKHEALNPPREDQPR

As for `CCN1CCC(n2cc([C@@H](Nc3cc(F)c4ncc(C#N)c(Nc5ccc(F)c(Cl)c5)c4c3)c3ccc(Cl)cc3)nn2)CC1` [Example 813, (S)-4-((3-chloro-4-fluorophenyl)amino)-6-(((4-chlorophenyl)(1-(1-ethylpiperidin-4-yl)-1H-1,2,3-triazol-4-yl)methyl)amino)-8-fluoroquinoline-3-carbonitrile], the EC50 in assay [1] was found to be 116 nM. The IC50 in assay [2] stood at 6 nM.
As to `N#Cc1cnc2c(F)cc(N[C@@H](c3ccc(Cl)cc3)c3cn(C4CCNCC4)nn3)cc2c1Nc1ccc(F)c(Cl)c1` [Example 814, (S)-4-((3-chloro-4-fluorophenyl)amino)-6-(((4-chlorophenyl)(1-(piperidin-4-yl)-1H-1,2,3-triazol-4-yl)methyl)amino)-8-fluoroquinoline-3-carbonitrile], in assay [1], the concentration for a half-maximal effect (EC50) came to 704 nM. Moreover, the IC50 in assay [2] was 10 nM.
For `N#Cc1cnc2c(Cl)cc(N[C@@H](c3ccc(F)cc3)c3c[nH]nn3)cc2c1Nc1ccc(F)c(Cl)c1` [Example 819, (S)-8-chloro-4-((3-chloro-4-fluorophenyl)amino)-6-(((4-fluorophenyl)(1H-1,2,3-triazol-4-yl)methyl)amino)quinoline-3-carbonitrile], in that order: 426 nM and 22 nM.
For `CN(C)C(=O)CN1CCC(n2cc([C@@H](Nc3cc(Cl)c4ncc(C#N)c(Nc5ccc(F)c(Cl)c5)c4c3)c3ccc(F)cc3)nn2)CC1` [Example 824, (S)-2-(4-(4-(((8-chloro-4-((3-chloro-4-fluorophenyl)amino)-3-cyanoquinolin-6-yl)amino)(4-fluorophenyl)methyl)-1H-1,2,3-triazol-1-yl)piperidin-1-yl)-N,N-dimethylacetamide], in assay [1], the concentration giving a half-maximal response (EC50) was 450 nM. Moreover, the IC50 in assay [2] is 58 nM.
For `CC(C)N1CCC(n2cc([C@@H](Nc3cc(Cl)c4ncc(C#N)c(Nc5ccc(F)c(Cl)c5)c4c3)c3ccc(F)cc3)nn2)CC1` [Example 825, (S)-8-chloro-4-((3-chloro-4-fluorophenyl)amino)-6-(((4-fluorophenyl)(1-(1-isopropylpiperidin-4-yl)-1H-1,2,3-triazol-4-yl)methyl)amino)quinoline-3-carbonitrile], in that order: 150 nM and 4 nM.
For `N#Cc1cnc2c(Cl)cc(N[C@@H](c3ccc(F)cc3)c3cn(C4CCN(CC(F)(F)F)CC4)nn3)cc2c1Nc1ccc(F)c(Cl)c1` [Example 828, (S)-8-chloro-4-((3-chloro-4-fluorophenyl)amino)-6-(((4-fluorophenyl)(1-(1-(2,2,2-trifluoroethyl)piperidin-4-yl)-1H-1,2,3-triazol-4-yl)methyl)amino)quinoline-3-carbonitrile], in that order: 1150 nM and 297 nM.
On the same counts, the results for `CC(C)(C)N1CCC(n2cc([C@@H](Nc3cc(Cl)c4ncc(C#N)c(Nc5ccc(F)c(Cl)c5)c4c3)c3ccccc3)nn2)CC1` [Example 831, (S)-6-(((1-(1-(tert-butyl)piperidin-4-yl)-1H-1,2,3-triazol-4-yl)(phenyl)methyl)amino)-8-chloro-4-((3-chloro-4-fluorophenyl)amino)quinoline-3-carbonitrile] are 381 nM and 10 nM.
Consider `CC(C)(C)N1CCC(n2cc([C@@H](Nc3cc(Cl)c4ncc(C#N)c(Nc5ccc(F)c(Cl)c5)c4c3)c3ccc(F)cc3)nn2)CC1` [Example 836, (S)-6-(((1-(1-(tert-butyl)piperidin-4-yl)-1H-1,2,3-triazol-4-yl)(4-fluorophenyl)methyl)amino)-8-chloro-4-((3-chloro-4-fluorophenyl)amino)quinoline-3-carbonitrile], for which the EC50 in assay [1] is 241 nM. For the same compound, in assay [2], the IC50 is 8 nM.
In the case of `Cn1cc([C@@H](Nc2cc(Cl)c3ncc(C#N)c(Nc4ccc(F)c(Cl)c4)c3c2)c2cccc(CN3CCCC3)c2)nn1` [Example 841, (S)-8-chloro-4-((3-chloro-4-fluorophenyl)amino)-6-(((1-methyl-1H-1,2,3-triazol-4-yl)(3-(pyrrolidin-1-ylmethyl)phenyl)methyl)amino) quinoline-3-carbonitrile], in assay [1], the EC50 worked out at 141 nM. Besides, the IC50 in assay [2] was determined as 8 nM.
As to `Cn1cc([C@H](Nc2cc(Cl)c3ncc(C#N)c(Nc4ccc(F)c(Cl)c4)c3c2)c2cccc(CN3CCCC3)c2)nn1` [Example 842, (R)-8-chloro-4-((3-chloro-4-fluorophenyl)amino)-6-(((1-methyl-1H-1,2,3-triazol-4-yl)(3-(pyrrolidin-1-ylmethyl)phenyl)methyl)amino) quinoline-3-carbonitrile], in assay [1], the EC50 stood at 22100 nM. For the same compound, in assay [2], the IC50 was found to be 998 nM.
On the same counts, the results for `Cn1ccnc1C(Nc1cc(Cl)c2ncc(C#N)c(Nc3ccc(F)c(Cl)c3)c2c1)c1ccc(F)cc1` (stereo not drawn) [Example 847, 8-chloro-4-((3-chloro-4-fluorophenyl)amino)-6-(((4-fluorophenyl)(1-methyl-1H-imidazol-2-yl)methyl)amino)quinoline-3-carbonitrile] are 7860 nM and 366 nM.
For `CCN1CCC(n2cc([C@H](Nc3cc(Cl)c4ncc(C#N)c(Nc5ccc(F)c(Cl)c5)c4c3)c3ccc(F)cc3)nn2)CC1` [Example 849, (R)-8-chloro-4-((3-chloro-4-fluorophenyl)amino)-6-(((1-(1-ethylpiperidin-4-yl)-1H-1,2,3-triazol-4-yl)(4-fluorophenyl)methyl)amino) quinoline-3-carbonitrile], in that order: 6280 nM and 687 nM.
Take `Cn1cc(C(Nc2cc(Cl)c3ncc(C#N)c(Nc4ccc(F)c(Cl)c4)c3c2)c2ccc(F)cc2)cn1` (stereo not drawn) [Example 853, 8-chloro-4-((3-chloro-4-fluorophenyl)amino)-6-(((4-fluorophenyl)(1-methyl-1H-pyrazol-4-yl)methyl)amino)quinoline-3-carbonitrile]: the EC50 in assay [1] was greater than 1000 nM. Besides, the IC50 in assay [2] turned out to be 6300 nM.
In the case of `Cn1cnnc1C(Nc1cc(Cl)c2ncc(C#N)c(Nc3ccc(F)c(Cl)c3)c2c1)c1ccc(F)cc1` (stereo not drawn) [Example 854, 8-chloro-4-((3-chloro-4-fluorophenyl)amino)-6-(((4-fluorophenyl)(4-methyl-4H-1,2,4-triazol-3-yl)methyl)amino)quinoline-3-carbonitrile], in assay [1], the EC50 is greater than 10000 nM. In addition, the IC50 in assay [2] came out at 469 nM.
On the same counts, the results for `CCN1CCC(n2cc([C@@H](Nc3cc(Cl)c4ncc(C#N)c(Nc5ccc(F)c(Cl)c5)c4c3)c3ccc(Cl)cc3)nn2)CC1` [Example 858, (S)-8-chloro-4-((3-chloro-4-fluorophenyl)amino)-6-(((4-chlorophenyl)(1-(1-ethylpiperidin-4-yl)-1H-1,2,3-triazol-4-yl)methyl)amino)quinoline-3-carbonitrile] are 99 nM and 8 nM.
On the same counts, the results for `N#Cc1cnc2c(Cl)cc(N[C@@H](c3ccc(Cl)cc3)c3cn(C4CCNCC4)nn3)cc2c1Nc1ccc(F)c(Cl)c1` [Example 859, (S)-8-chloro-4-((3-chloro-4-fluorophenyl)amino)-6-(((4-chlorophenyl)(1-(piperidin-4-yl)-1H-1,2,3-triazol-4-yl)methyl)amino)quinoline-3-carbonitrile] are 533 nM and 12 nM.
As for `Cn1cnc(C(Nc2cc(Cl)c3ncc(C#N)c(Nc4ccc(F)c(Cl)c4)c3c2)c2ccc(F)c(F)c2)c1` (stereo not drawn) [Example 869, 8-chloro-4-((3-chloro-4-fluorophenyl)amino)-6-(((3,4-difluorophenyl)(1-methyl-1H-imidazol-4-yl)methyl)amino)quinoline-3-carbonitrile], the EC50 in assay [1] worked out at 2760 nM. In assay [2], the IC50 stood at 125 nM.
For `N#Cc1cnc2c(Cl)cc(NC(c3ccc(Cl)cc3)c3cn(C4CNC4)nn3)cc2c1Nc1ccc(F)c(Cl)c1` (stereo not drawn) [Example 872, 6-(((1-(azetidin-3-yl)-1H-1,2,3-triazol-4-yl)(4-chlorophenyl)methyl)amino)-8-chloro-4-((3-chloro-4-fluorophenyl)amino)quinoline-3-carbonitrile], in that order: 1310 nM and 41 nM.
For `Cn1cc(C(Nc2cc(Cl)c3ncc(C#N)c(Nc4ccc(F)c(Cl)c4)c3c2)c2ccc(Cl)cc2)nn1` (stereo not drawn) [Example 881, 8-chloro-4-((3-chloro-4-fluorophenyl)amino)-6-(((4-chlorophenyl)(1-methyl-1H-1,2,3-triazol-4-yl)methyl)amino)quinoline-3-carbonitrile], in assay [1], the EC50 amounted to 673 nM. In assay [2], the IC50 was found to be 39 nM.
`Cn1cc(C(Nc2cc(Cl)c3ncc(C#N)c(Nc4ccc(F)c(Cl)c4)c3c2)c2ccc(F)cc2)nn1` (stereo not drawn) [Example 882, 8-chloro-4-((3-chloro-4-fluorophenyl)amino)-6-(((4-fluorophenyl)(1-methyl-1H-1,2,3-triazol-4-yl)methyl)amino)quinoline-3-carbonitrile]: the EC50 in assay [1] came to 321 nM. Besides, the 50% inhibitory concentration (IC50) in assay [2] was 20 nM.
On the same counts, the results for `Cc1cc(F)ccc1C(Nc1cc(Cl)c2ncc(C#N)c(Nc3ccc(F)c(Cl)c3)c2c1)c1cn(C2CCNCC2)nn1` (stereo not drawn) [Example 884, 8-chloro-4-((3-chloro-4-fluorophenyl)amino)-6-(((4-fluoro-2-methylphenyl) (1-(piperidin-4-yl)-1H-1,2,3-triazol-4-yl)methyl)amino)quinoline-3-carbonitrile] are 466 nM and 11 nM.
